In PubChem BioAssay (NCI):
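Tested at 5 concentrations; 48 h exposure; 96-well plates; endpoints linearly interpolated, else capped at highest concentration. Definition used: TGI = concentration required for complete inhibition of growth.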

Key:
Experiment in all cases: NCI anticancer screen, dose series, 48 h
[1] = system: A549 NSCLC
[2] = system: BT-549 breast
[3] = system: CAKI-1 renal
[4] = system: CCRF-CEM leukemia
[5] = system: EKVX NSCLC
[6] = system: HCC-2998 colon
[7] = system: HS 578T breast
[8] = system: MDA-MB-231 breast
[9] = system: MDA-MB-435
[10] = system: MDA-N
[11] = system: NCI-H226 lung
[12] = system: SF-295 CNS
[13] = system: SK-OV-3 ovarian
[14] = system: SN12C renal
[15] = system: SNB-75 CNS
[16] = system: SW-620 colon
[17] = system: T-47D breast
[18] = system: TK-10 renal
[19] = system: UACC-257 melanoma

With Cc1ccc2cc3c(ccc4ccccc43)c3c2c1CC3 the TGI [1] was > 100 µM, the TGI [2] was > 100 µM and the TGI [3] was > 100 µM. The TGI [4] was > 100 µM, the TGI [5] was > 100 µM and the TGI [6] was > 100 µM. The TGI [7] was > 100 µM, the TGI [8] was > 100 µM and the TGI [9] was > 100 µM. The TGI [10] was > 100 µM, the TGI [11] was > 100 µM and the TGI [12] was > 100 µM. For the same compound, the TGI [13] was > 100 µM, the TGI [14] was > 100 µM and the TGI [15] was > 100 µM. For the same compound, the TGI [16] was > 100 µM, the TGI [17] was > 100 µM and the TGI [18] was > 100 µM. For the same compound, the TGI [19] was > 100 µM.

CCCCNc1c(CN)cnc2cc(Cl)ccc12 gave a TGI [1] of 41.5 µM, a TGI [2] of 31.8 µM and a TGI [3] of 65.7 µM. It also gave a TGI [4] of 18.7 µM, a TGI [5] of 17.1 µM and a TGI [6] of 9.63 µM. It also gave a TGI [7] of 37.2 µM, a TGI [8] of 30 µM and a TGI [9] of 35 µM. The TGI [10] was 39.3 µM, the TGI [11] was 32.6 µM and the TGI [12] was 29.8 µM. For the same compound, the TGI [13] was 31.6 µM, the TGI [14] was 37.9 µM and the TGI [15] was 42.3 µM. It also gave a TGI [16] of 33.5 µM, a TGI [17] of 44.3 µM and a TGI [18] of 30.2 µM. For the same compound, the TGI [19] was 26.5 µM.

With Nc1ccc(C2NC(=O)Cc3c2ccc2ccccc32)cc1 (configuration not stated) the TGI [1] was > 100 µM, the TGI [3] was > 100 µM and the TGI [4] was > 100 µM. For the same compound, the TGI [5] was > 100 µM, the TGI [6] was > 100 µM and the TGI [7] was > 100 µM. For the same compound, the TGI [9] was > 100 µM, the TGI [10] was > 100 µM and the TGI [11] was > 100 µM. For the same compound, the TGI [12] was > 100 µM, the TGI [13] was > 100 µM and the TGI [15] was > 100 µM. For the same compound, the TGI [16] was > 100 µM, the TGI [17] was > 100 µM and the TGI [18] was > 100 µM. The TGI [19] was > 100 µM.

In the case of NC(=O)NO, the TGI [1] is reported as 2340 µM, the TGI [2] is reported as > 2500 µM and the TGI [3] is reported as 1720 µM. For the same compound, the TGI [4] was 1060 µM, the TGI [5] was > 2460 µM and the TGI [6] was 1810 µM. For the same compound, the TGI [7] was > 1220 µM, the TGI [8] was > 1410 µM and the TGI [9] was > 2500 µM. For the same compound, the TGI [10] was > 2500 µM, the TGI [11] was 2120 µM and the TGI [12] was 1950 µM. The TGI [13] was > 2500 µM, the TGI [14] was 2390 µM and the TGI [15] was 2310 µM. The TGI [16] was > 2500 µM, the TGI [17] was > 2500 µM and the TGI [18] was > 2500 µM. The TGI [19] was > 2500 µM.

C=CCOC1OC(CS(=O)(=O)O)C(O)C(O)C1O (configuration not stated) was tested, and the TGI [2] was > 100 µM, the TGI [3] was > 100 µM and the TGI [6] was > 100 µM. The TGI [7] was > 100 µM, the TGI [8] was > 100 µM and the TGI [9] was > 100 µM. The TGI [10] was > 100 µM, the TGI [11] was > 100 µM and the TGI [12] was > 100 µM. The TGI [13] was > 100 µM, the TGI [14] was > 100 µM and the TGI [15] was > 100 µM. The TGI [16] was > 100 µM, the TGI [17] was > 100 µM and the TGI [18] was > 100 µM. The TGI [19] was > 100 µM.

For O=C(O)C(O)Cc1ccccn1 (configuration not stated), the TGI [1] was > 100 µM, the TGI [2] was > 100 µM and the TGI [3] was > 100 µM. The TGI [4] was > 100 µM, the TGI [5] was > 100 µM and the TGI [6] was > 100 µM. For the same compound, the TGI [7] was > 100 µM, the TGI [8] was > 100 µM and the TGI [9] was > 100 µM. The TGI [11] was > 100 µM, the TGI [12] was > 100 µM and the TGI [13] was > 100 µM. The TGI [16] was > 100 µM, the TGI [17] was > 100 µM and the TGI [18] was > 100 µM. The TGI [19] was > 100 µM.

For COc1ccc2oc(=O)cc(C)c2c1, the TGI [1] was > 100 µM, the TGI [2] was > 100 µM and the TGI [3] was > 100 µM. The TGI [4] was > 100 µM, the TGI [5] was > 100 µM and the TGI [6] was > 100 µM. For the same compound, the TGI [7] was > 100 µM, the TGI [8] was > 100 µM and the TGI [9] was > 100 µM. For the same compound, the TGI [10] was > 100 µM, the TGI [11] was > 100 µM and the TGI [12] was > 100 µM. The TGI [14] was > 100 µM, the TGI [15] was > 100 µM and the TGI [16] was > 100 µM. For the same compound, the TGI [17] was > 100 µM, the TGI [18] was > 100 µM and the TGI [19] was > 100 µM.

In the case of COc1ccccc1N1C(Cl)C(=O)C1c1c[nH]c2ccccc12 (configuration not stated), the TGI [1] is reported as > 100 µM, the TGI [4] is reported as > 100 µM and the TGI [5] is reported as > 100 µM. The TGI [12] was > 100 µM, the TGI [13] was > 100 µM and the TGI [14] was > 100 µM. For the same compound, the TGI [15] was > 100 µM, the TGI [16] was > 100 µM and the TGI [18] was > 100 µM. The TGI [19] was > 100 µM.

In the case of COc1ccc(C2C(=O)C(Cl)N2Nc2nc(C)cc(=O)[nH]2)cc1OC (configuration not stated), the TGI [1] is reported as > 100 µM, the TGI [4] is reported as 55.1 µM and the TGI [5] is reported as > 100 µM. The TGI [6] was > 100 µM, the TGI [14] was 94.2 µM and the TGI [15] was 52.7 µM. For the same compound, the TGI [16] was > 100 µM, the TGI [18] was > 100 µM and the TGI [19] was > 100 µM.

In the case of CS/C(=N\C(=S)Nc1ccccc1)Nc1ccccc1, the TGI [1] is reported as 59.2 µM, the TGI [3] is reported as 54.7 µM and the TGI [6] is reported as 57 µM. The TGI [11] was 70.5 µM, the TGI [12] was 97 µM and the TGI [13] was 58.9 µM. For the same compound, the TGI [14] was 67.6 µM, the TGI [15] was 84.7 µM and the TGI [16] was > 100 µM. It also gave a TGI [18] of 54.7 µM.

c1ccc(C(c2ccccc2)[P+](c2ccccc2)(c2ccccc2)c2ccccc2)cc1 showed a TGI [1] of 14.6 µM, a TGI [3] of 8.47 µM and a TGI [4] of 14.6 µM. For the same compound, the TGI [5] was 50.4 µM, the TGI [6] was 11.7 µM and the TGI [11] was 6.03 µM. The TGI [12] was 7.27 µM, the TGI [13] was 2.68 µM and the TGI [14] was 11.7 µM. The TGI [15] was 5.17 µM, the TGI [16] was 13.2 µM and the TGI [19] was 3.17 µM.

FC(F)(F)C(C1=NC(C(F)(F)F)(C(F)(F)F)N=C(N2CCOCC2)O1)C(F)(F)F showed a TGI [1] of 62.8 µM, a TGI [2] of 56 µM and a TGI [3] of 61.6 µM. For the same compound, the TGI [4] was 25.3 µM, the TGI [5] was 61.3 µM and the TGI [6] was > 100 µM. For the same compound, the TGI [7] was > 100 µM, the TGI [8] was 36.1 µM and the TGI [9] was 59.3 µM. For the same compound, the TGI [10] was 53.8 µM, the TGI [12] was 44.6 µM and the TGI [13] was > 100 µM. The TGI [14] was 36.1 µM, the TGI [15] was > 100 µM and the TGI [16] was 41.9 µM. For the same compound, the TGI [17] was 89.4 µM, the TGI [18] was 83.6 µM and the TGI [19] was 75.3 µM.
